Assay [1] has as its system binding of CTLA-4Ig to B7 on Cess B cells. The assay is described as follows: CTLA-4Ig/B7 binding assay on Cess B cells by FACS. More on the design: key to Binding Assay (effect on CTLA-4Ig binding to Cess B cells): −: no change in binding; +: a minor change of <10% in binding; ++: a change of >20% in binding. Conditions: FACS; assays of 3/24, 3/25, 4/5, 4/25; one symbol per assay. The procedure: +++ was assigned if the peptide tested gave >50% change in cpm in a dose dependent fashion. In addition to the MLR, these 34 peptides were also evaluated in a CTLA-4Ig/B7 binding assay in which the ability of these peptides to affect the binding of CTLA-4Ig to B7 on Cess B cells was examined by FACS analysis.
As with the MLR, a + or − was assigned to each peptide depending on its ability to effect CTLA-4Ig binding to Cess B cells; where − represents no change in binding, + represents a minor change of <10% in binding, and a ++ represents a change of >20% in binding.

For assay [2], the system named is lymphocyte proliferation in the human MLR. Format: cell-based. Conditions: for Human MLR (ability to inhibit lymphocyte proliferation, cpm): peptide 12.5 to 100 μM, assays of 1/24, 1/31, 3/6, 4/17, 5/2, one symbol per assay; for effect on the human MLR in combination with CTLA-4Ig: CTLA-4Ig spiked in at 0.5 μg/ml (FIG. 8). The procedure: Whole blood from donors was obtained from Interstate Blood Bank, Memphis, Tenn. Blood specimens were handled in a biosafety level 2 containment facility as recommended for potentially infectious blood specimens in the CDC/NIH manual Biosafety in Microbiological and Biomedical Laboratories; 3rd edition, 1993, page 10. Peripheral blood mononuclear cells (PBMC) were separated from red blood cells and granulocytes by ficoll-hypaque purification. Whole peripheral blood was diluted 1:2 in PBS and 30 ml was overlayed onto 15 ml of ficoll-hypaque in 50 ml polypropylene tubes. The tubes were spun at 400×g for 30 min at 25° C. Following centrifugation, the interface between the upper plasma layer and the lower ficoll layer was collected, cells washed in RPMI-1640 2×, and viable counts determined using trypan blue. Cells to be used as responders in the assay were stored on ice until mitomycin C treatment of stimulator cells was completed.
PBMC, isolated as described above, to be used as stimulators in the assay were adjusted to 2-4×10^6 cells/ml in complete medium (RPMI 1640 containing 10% heat-inactivated human AB serum, 2 mM glutamine, 50 μM 2-mercaptoethanol and 100 U/ml penicillin-100 μg/ml streptomycin), and treated with mitomycin C (25 μg/ml) for 30 min in a 37° C. water bath. Following treatment, cells were washed with S volumes of complete medium 3×, and viable counts determine using trypan blue. To set up autologous stimulation controls some responder cells were also treated with mitomycin C as mentioned above.
Purified CTLA-4Ig fusion protein was produced, as described in Steurer et al. 1995, from a NS-1 cell line kindly donated by Dr. T. Strom (Beth Israel Hospital, Boston, Mass.) as a 1 mg/ml solution in sterile PBS. The protein was stored frozen at −80° C. Upon thawing, the aliquot was stored at 4° C. Purified peptides were lyophilized according to known procedures. Peptides were reconstituted in sterile PBS, pH 7.4 at 2 mM concentration, aliquoted in microfuge cubes and stored frozen at −20° C. For the assay, an aliquot of the peptide was thawed and diluted to 200 μM in complete medium.
For the one-way allogeneic mixed lymphocyte response (MLR) assay, responder cells were plated at 10^6 cells/well, and stimulator cells at 5×10^4 cells/well in 96-well round bottom plates. Cells were incubated with serial dilutions of the anti-CD4 Ab Leu 3A (1 μg/ml-0.06 μg/ml) in triplicate, or an isotype-matched control Ab. Cyclosporin A at 1 μg/ml was used as an additional control.
CTLA-4 Ig was serially diluted an.4 tested from 10 μg/ml to 0.15 μg/ml. Peptides were tested either directly or in the presence of a constant spiked-in dose of CTLA-4 Ig at 0.5 μg/ml. The plates were incubated at 37° C. in a humidified 5% CO2 atmosphere for 7 days.
Proliferation of the cells was determined by pulsing the wells with ^3H-Tdr (1 μCi/well) for the last 18 h of the assay. Plates were harvested using a Tomtec -late harvester and the counts incorporated determined using a Wallac microbetaplate plus reader.
A total of 34 peptides were tested for inhibition of lymphocyte proliferation in the human MLR. Each peptide was tested in a MLR at doses ranging from 12.5 to 100 μM. The activity of each peptide was identified by assigning a + and − tone peptide depending on its ability to inhibit lymphocyte proliferation in the MLR (cpms).

Like-named read-outs stand apart in the source and are kept apart here. Bridge positions count the residues as written; N and C are the ends. Ends that are not written are not given here. iodoacetamide‑alkyl = not defined here

We go through 18 substances from US6337316B1, “Pharmaceutical compositions thereof, and methods of using same” (Applied Research Systems ARS Holding N.V., priority 1997, dated 2002).

On to ADSQVTEV [AT 127.1], for which the “Binding Assay (effect on CTLA-4Ig binding to Cess B cells)” value (“Binding Assay” below) in assay [1] is “+/−, +/−”. For the same substance, the “Human MLR (ability to inhibit lymphocyte proliferation, cpm)” value in assay [2] is reported as “−, −”.

As for ADSQVTEV-OH [AT 124.1], the “Binding Assay” value in assay [1] is “+, −”. The “Human MLR (ability to inhibit lymphocyte proliferation, cpm)” value in assay [2] is “−, −”.

Take “AT 199.2A: resynthesis of AT 199.1, refolding prolonged to 5 days at pH 10.0; fully cyclized version (RKCLMYPPPYYCHH; disulfide 3-12 (inferred); not fully specified (C-terminus))”: the “inhibition of the human MLR” value in assay [2] (100 μM, another MLR) amounted to 25%; in assay [2] (100 μM, one MLR), 50%. Besides, in assay [2], the “effect on the human MLR in combination with CTLA-4Ig” value is given as “additive”.

“AT 199.2B: AT 199 treated with iodoacetamide, purely linear analog with alkylated cysteines (RKC(iodoacetamide‑alkyl)LMYPPPYYC(iodoacetamide‑alkyl)HH; not fully specified (C-terminus); reading uncertain)”: the “effect on the human MLR in combination with CTLA-4Ig” value in assay [2] is on record as “no effect”. Besides, the “inhibition of the MLR, in words” value in assay [2] (control and linear peptides compared with AT 199) is “no effect”. Further, in assay [2] (the MLR's, highest concentration (100 μM) tested), the “inhibition of the human MLR” value is < 10%.

On to “CDDSIC (disulfide 1-6 (inferred)) [AT 131.1]”, for which the “Human MLR (ability to inhibit lymphocyte proliferation, cpm)” value in assay [2] was “+, −, −”.

Consider “CEYASPGKATEVC (disulfide 1-13 (inferred)) [AT 123.1]”, for which the “Binding Assay” value in assay [1] is given as “+/−, −”. Moreover, in assay [2], the “Human MLR (ability to inhibit lymphocyte proliferation, cpm)” value is listed as “−, −”.

Turning to “CKGLDSAVEC (disulfide 1-10 (inferred)) [AT 108.1]”, the “Binding Assay” value in assay [1] is listed as “−”. For the same substance, in assay [2], the “Human MLR (ability to inhibit lymphocyte proliferation, cpm)” value was “−, −, −”.

For “CKIEVMYPPPYC (disulfide 1-12 (inferred)) [AT 113.1]”, the “Binding Assay” value in assay [1] is “−, −”. Moreover, the “Human MLR (ability to inhibit lymphocyte proliferation, cpm)” value in assay [2] is reported as “− (all concentrations of peptide tested gave <15% change in cpm)”.

With “CKIEVMYPPPYLC (disulfide 1-13 (inferred)) [AT 114.1]”, the “Binding Assay” value in assay [1] is on record as “Toxic”. Also, the “Human MLR (ability to inhibit lymphocyte proliferation, cpm)” value in assay [2] is reported as “Toxic”.

As for “CKYSYNLFSREFC (disulfide 1-13 (inferred)) [AT 107.1]”, the “Human MLR (ability to inhibit lymphocyte proliferation, cpm)” value in assay [2] is given as “−, +, +, −”.

As for “CMYPPPYGKC (disulfide 1-10 (inferred)) [AT 110.1]”, the “Binding Assay” value in assay [1] is given as “−, −”. For the same substance, the “Human MLR (ability to inhibit lymphocyte proliferation, cpm)” value in assay [2] is listed as “− (all concentrations of peptide tested gave <15% change in cpm)”.

As for “CMYPPPYKAKC (disulfide 1-11 (inferred)) [AT 112.1]”, the “Binding Assay” value in assay [1] was “−, −”. Besides, the “Human MLR (ability to inhibit lymphocyte proliferation, cpm)” value in assay [2] is “− (all concentrations of peptide tested gave <15% change in cpm)”.

With “CMYPPPYYKAKC (disulfide 1-12 (inferred)) [AT 130.1]”, the “Binding Assay” value in assay [1] was “−, −”. Also, the “Human MLR (ability to inhibit lymphocyte proliferation, cpm)” value in assay [2] is “−, −”.

Take “CMYPPPYYRGGKC (disulfide 1-13 (inferred)) [AT 129.1]”: the “Binding Assay” value in assay [1] is recorded as “++ (a change of >20% in binding)”. Also, in assay [2], the “Human MLR (ability to inhibit lymphocyte proliferation, cpm)” value is on record as “−, −”.

Consider “CMYPPQYGKC (disulfide 1-10 (inferred)) [AT 111.1]”, for which, in assay [1], the “Binding Assay” value is “−”. In addition, the “Human MLR (ability to inhibit lymphocyte proliferation, cpm)” value in assay [2] is recorded as “−, +/−”.

Turning to “CMYPPYLRGGKC (disulfide 1-12 (inferred)) [AT 109.1]”, the “Binding Assay” value in assay [1] is “−, +”.

As for “ECASPGKATEVC (not fully specified (bridges); cysteine pairing not given here) [AT 118.1]”, the “Human MLR (ability to inhibit lymphocyte proliferation, cpm)” value in assay [2] is “− (all concentrations of peptide tested gave <15% change in cpm)”.

Take KILVKQS-OH [AT 121.1]: the “Human MLR (ability to inhibit lymphocyte proliferation, cpm)” value in assay [2] was “+/−, −”.
